# Active and inactive are the calls of the source. Rule as the data show it, for most assays here: actives have a measured Kd and inactives only a lower limit.
# Tests used:
# [1] = target: T1, Acyl-CoA dehydrogenase family member 10 (Homo sapiens, UniProt Q6JQN1)
# T1 sequence (Q6JQN1 whole entry): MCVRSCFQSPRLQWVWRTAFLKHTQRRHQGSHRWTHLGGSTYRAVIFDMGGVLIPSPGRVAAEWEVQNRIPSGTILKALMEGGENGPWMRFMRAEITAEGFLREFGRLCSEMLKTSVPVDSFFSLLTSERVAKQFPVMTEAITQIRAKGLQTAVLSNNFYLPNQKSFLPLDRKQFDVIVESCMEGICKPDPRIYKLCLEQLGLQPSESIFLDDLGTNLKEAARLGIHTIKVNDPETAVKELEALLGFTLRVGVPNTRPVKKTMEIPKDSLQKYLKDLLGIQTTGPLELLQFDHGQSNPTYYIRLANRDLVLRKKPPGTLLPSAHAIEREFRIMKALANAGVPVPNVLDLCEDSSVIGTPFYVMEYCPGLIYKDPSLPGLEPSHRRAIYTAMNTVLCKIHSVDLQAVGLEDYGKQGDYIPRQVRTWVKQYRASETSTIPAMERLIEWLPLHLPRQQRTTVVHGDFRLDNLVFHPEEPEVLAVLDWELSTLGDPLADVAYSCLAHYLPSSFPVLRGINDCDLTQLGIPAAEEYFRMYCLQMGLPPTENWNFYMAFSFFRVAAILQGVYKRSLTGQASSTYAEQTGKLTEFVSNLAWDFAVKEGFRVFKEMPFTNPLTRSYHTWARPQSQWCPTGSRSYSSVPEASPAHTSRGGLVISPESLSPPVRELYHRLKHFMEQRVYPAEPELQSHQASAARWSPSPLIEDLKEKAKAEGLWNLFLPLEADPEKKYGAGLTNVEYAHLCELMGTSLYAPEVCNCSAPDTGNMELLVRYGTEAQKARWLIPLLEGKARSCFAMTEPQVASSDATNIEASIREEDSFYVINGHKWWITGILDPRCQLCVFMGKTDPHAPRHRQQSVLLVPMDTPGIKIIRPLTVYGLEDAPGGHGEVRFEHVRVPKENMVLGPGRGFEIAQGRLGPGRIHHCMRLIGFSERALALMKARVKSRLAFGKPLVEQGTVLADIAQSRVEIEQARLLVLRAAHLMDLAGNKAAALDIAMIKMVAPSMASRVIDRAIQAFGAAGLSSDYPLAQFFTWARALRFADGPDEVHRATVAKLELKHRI
# [2] = target: T2, Very long-chain specific acyl-CoA dehydrogenase, mitochondrial (Homo sapiens, UniProt P49748)
# T2 sequence (P49748 whole entry): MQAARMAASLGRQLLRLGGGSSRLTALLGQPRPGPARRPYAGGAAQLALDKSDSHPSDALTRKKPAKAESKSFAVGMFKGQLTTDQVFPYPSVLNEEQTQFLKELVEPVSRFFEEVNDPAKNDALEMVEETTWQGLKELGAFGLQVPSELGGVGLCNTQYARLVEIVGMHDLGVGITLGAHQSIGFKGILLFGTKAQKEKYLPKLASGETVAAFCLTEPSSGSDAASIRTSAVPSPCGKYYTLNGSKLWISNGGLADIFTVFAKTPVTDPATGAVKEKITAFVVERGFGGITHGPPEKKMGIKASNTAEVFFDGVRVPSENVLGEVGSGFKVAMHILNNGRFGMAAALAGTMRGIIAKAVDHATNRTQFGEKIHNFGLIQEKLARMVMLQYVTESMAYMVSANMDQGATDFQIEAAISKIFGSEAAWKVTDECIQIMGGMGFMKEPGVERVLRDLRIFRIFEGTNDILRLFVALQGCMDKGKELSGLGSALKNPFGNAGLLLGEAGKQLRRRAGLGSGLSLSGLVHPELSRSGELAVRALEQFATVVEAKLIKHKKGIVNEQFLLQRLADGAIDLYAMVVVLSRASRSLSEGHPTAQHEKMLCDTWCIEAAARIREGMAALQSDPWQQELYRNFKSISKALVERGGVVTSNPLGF
# [3] = target: Cyclin-dependent kinase 12 (Homo sapiens, UniProt Q9NYV4)
# Chain of Cyclin-dependent kinase 12 (Q9NYV4 whole entry): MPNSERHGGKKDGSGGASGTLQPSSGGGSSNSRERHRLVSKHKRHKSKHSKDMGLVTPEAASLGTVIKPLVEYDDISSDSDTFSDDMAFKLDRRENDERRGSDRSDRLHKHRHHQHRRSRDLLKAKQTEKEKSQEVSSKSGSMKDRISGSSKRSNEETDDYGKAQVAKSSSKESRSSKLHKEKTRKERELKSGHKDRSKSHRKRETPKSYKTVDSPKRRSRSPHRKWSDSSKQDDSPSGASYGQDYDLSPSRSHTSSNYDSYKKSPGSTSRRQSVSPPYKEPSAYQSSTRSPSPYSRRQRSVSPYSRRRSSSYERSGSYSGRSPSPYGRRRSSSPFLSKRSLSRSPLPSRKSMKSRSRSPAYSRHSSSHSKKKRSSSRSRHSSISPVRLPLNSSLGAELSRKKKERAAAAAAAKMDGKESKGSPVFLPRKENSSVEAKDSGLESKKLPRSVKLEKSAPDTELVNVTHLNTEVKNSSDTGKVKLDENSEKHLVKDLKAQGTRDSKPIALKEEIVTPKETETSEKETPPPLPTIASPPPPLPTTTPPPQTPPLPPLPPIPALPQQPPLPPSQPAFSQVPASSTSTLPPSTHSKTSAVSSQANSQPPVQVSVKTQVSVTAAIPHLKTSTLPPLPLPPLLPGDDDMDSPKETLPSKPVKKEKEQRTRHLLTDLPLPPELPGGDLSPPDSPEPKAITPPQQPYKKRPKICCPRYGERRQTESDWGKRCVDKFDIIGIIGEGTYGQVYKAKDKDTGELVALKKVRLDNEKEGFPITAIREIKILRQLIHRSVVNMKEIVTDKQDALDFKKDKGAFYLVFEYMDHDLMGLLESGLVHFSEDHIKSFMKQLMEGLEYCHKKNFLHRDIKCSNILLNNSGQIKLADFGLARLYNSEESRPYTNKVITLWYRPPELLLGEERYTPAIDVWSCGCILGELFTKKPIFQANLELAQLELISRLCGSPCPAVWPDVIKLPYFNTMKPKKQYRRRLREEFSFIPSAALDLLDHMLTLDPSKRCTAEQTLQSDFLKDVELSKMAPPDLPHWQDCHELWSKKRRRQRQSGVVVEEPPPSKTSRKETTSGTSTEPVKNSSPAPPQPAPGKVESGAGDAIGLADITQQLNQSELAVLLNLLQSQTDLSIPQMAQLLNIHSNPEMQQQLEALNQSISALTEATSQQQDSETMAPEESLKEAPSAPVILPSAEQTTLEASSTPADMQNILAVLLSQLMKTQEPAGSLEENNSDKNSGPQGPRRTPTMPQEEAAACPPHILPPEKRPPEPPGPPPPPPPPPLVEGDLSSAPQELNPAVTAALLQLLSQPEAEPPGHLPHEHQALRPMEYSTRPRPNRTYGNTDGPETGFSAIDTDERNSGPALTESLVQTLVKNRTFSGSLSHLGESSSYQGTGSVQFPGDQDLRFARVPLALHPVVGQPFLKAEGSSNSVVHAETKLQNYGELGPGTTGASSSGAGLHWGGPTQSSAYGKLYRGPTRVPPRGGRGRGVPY
# [4] = target: Tyrosine-protein kinase Fer (Homo sapiens, UniProt P16591)
# Chain of Tyrosine-protein kinase Fer (P16591 whole entry): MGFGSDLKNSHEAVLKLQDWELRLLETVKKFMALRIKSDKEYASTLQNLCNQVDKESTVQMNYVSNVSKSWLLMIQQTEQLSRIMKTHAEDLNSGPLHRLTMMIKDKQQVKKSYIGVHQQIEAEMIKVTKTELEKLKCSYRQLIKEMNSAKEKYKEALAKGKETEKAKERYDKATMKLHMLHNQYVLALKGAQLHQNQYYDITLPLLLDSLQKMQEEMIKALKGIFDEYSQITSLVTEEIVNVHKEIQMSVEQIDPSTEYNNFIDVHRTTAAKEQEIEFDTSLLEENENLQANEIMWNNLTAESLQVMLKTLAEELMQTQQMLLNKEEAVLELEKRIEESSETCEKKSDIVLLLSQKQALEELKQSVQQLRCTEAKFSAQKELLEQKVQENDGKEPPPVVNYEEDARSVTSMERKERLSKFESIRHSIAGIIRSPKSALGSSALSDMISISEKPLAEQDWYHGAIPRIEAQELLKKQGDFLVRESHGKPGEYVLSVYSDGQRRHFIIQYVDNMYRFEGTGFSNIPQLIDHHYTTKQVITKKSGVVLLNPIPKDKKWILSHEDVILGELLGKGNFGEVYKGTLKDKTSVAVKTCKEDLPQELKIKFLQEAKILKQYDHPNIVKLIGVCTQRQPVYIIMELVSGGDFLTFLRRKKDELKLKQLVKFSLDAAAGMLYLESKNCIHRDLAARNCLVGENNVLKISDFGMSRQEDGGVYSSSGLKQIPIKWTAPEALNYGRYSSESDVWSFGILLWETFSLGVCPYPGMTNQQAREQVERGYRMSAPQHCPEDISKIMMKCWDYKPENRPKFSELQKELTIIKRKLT
# [5] = target: Tyrosine-protein kinase JAK1 (Homo sapiens, UniProt P23458)
# Chain of Tyrosine-protein kinase JAK1 (P23458 whole entry): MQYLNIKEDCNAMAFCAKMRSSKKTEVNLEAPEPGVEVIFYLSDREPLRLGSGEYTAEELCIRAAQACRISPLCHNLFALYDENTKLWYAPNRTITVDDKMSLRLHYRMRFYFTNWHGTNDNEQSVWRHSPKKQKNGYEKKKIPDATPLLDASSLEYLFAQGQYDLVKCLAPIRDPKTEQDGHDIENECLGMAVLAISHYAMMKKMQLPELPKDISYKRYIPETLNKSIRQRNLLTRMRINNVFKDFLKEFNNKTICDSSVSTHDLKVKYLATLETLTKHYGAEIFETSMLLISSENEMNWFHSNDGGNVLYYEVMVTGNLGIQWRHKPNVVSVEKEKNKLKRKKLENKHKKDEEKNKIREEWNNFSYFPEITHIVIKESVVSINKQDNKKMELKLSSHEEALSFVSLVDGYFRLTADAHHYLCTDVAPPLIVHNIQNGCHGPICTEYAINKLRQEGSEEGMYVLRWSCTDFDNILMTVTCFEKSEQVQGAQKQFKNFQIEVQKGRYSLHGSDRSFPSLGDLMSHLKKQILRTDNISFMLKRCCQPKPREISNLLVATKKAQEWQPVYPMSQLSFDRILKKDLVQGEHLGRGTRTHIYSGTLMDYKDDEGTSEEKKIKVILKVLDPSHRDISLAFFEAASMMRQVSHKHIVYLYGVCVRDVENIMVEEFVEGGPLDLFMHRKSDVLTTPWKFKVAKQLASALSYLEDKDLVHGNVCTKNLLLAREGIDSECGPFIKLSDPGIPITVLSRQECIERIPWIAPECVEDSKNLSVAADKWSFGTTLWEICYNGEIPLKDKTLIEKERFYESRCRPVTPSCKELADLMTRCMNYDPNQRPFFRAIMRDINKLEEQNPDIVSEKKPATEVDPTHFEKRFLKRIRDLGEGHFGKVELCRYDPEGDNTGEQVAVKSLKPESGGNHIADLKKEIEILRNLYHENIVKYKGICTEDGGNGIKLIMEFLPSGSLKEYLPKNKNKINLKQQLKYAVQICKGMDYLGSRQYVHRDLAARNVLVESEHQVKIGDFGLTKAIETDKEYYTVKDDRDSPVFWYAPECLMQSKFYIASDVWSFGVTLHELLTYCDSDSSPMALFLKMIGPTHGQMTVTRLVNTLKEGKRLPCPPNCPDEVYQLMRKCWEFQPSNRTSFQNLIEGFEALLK
# [6] = target: T3, Ribosyldihydronicotinamide dehydrogenase [quinone] (Homo sapiens, UniProt P16083)
# T3 sequence (P16083 whole entry): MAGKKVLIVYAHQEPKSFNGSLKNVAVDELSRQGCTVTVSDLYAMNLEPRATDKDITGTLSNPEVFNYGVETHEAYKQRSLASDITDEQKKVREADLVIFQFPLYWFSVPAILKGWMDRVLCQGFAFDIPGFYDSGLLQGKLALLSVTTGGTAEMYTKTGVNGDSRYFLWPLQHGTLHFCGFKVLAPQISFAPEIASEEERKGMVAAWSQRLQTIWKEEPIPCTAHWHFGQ
# [7] = target: Focal adhesion kinase 1 (Homo sapiens, UniProt Q05397)
# [8] = target: Protein-tyrosine kinase 2-beta (Homo sapiens, UniProt Q14289)
# Chain of Protein-tyrosine kinase 2-beta (Q14289 whole entry): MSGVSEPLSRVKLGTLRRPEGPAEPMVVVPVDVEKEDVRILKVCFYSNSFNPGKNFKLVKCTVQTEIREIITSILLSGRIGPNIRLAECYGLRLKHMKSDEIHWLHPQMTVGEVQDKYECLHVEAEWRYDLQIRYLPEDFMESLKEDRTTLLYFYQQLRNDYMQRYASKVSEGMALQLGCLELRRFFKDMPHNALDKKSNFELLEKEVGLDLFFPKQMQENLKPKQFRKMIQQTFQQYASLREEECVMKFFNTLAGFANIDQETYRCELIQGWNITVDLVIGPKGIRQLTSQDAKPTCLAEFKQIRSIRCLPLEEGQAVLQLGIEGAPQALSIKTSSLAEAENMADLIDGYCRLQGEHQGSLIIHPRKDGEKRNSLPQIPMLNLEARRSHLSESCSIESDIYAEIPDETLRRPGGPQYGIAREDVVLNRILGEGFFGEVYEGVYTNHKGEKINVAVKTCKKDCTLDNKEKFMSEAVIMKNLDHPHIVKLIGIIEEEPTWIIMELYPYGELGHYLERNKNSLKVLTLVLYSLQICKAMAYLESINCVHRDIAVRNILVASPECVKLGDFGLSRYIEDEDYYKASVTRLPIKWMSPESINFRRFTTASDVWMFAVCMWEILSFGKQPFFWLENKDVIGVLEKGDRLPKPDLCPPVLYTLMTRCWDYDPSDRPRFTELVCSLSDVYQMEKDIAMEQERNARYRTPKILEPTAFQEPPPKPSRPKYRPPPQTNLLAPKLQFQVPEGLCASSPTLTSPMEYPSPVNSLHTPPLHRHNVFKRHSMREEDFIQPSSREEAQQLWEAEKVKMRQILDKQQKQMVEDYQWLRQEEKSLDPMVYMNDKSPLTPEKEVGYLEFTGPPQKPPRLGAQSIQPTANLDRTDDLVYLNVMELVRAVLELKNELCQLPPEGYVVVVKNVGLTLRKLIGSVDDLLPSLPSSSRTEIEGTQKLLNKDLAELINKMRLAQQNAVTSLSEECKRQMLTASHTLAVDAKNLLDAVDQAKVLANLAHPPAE
# [9] = target: Proto-oncogene tyrosine-protein kinase receptor Ret (Homo sapiens, UniProt P07949)
# [10] = target: T4, Non-receptor tyrosine-protein kinase TNK1 (Homo sapiens, UniProt Q13470)
# T4 sequence (Q13470 whole entry): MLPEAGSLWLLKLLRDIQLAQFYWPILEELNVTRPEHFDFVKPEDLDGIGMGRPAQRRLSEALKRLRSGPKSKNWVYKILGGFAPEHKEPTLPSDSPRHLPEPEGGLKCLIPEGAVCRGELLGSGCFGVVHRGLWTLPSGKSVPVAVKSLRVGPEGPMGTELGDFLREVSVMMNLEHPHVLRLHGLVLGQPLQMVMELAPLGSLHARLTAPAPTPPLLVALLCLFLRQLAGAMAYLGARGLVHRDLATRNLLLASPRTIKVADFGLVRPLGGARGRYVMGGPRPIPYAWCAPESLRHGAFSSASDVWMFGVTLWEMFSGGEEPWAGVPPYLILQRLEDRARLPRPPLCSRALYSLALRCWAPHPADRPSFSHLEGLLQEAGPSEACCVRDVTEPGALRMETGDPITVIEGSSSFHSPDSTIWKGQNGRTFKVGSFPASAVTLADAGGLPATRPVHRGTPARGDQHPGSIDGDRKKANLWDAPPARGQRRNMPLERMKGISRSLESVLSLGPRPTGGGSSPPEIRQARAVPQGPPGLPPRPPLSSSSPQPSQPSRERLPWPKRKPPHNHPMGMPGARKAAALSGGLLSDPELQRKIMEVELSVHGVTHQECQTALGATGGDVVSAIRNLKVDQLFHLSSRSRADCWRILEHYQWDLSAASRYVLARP
# Also: in the data inactive means no Kd found up to 30 µM.
Structure (SMILES),Kd [1],Kd [2],Kd [3],Kd [4],Kd [5],Kd [6],Kd [7],Kd [8],Kd [9],Kd [10]
CO[C@H]1C[C@@H]2CC[C@@H](C)[C@@](O)(O2)C(=O)C(=O)N2CCCC[C@H]2C(=O)O[C@H]([C@H](C)C[C@@H]2CC[C@@H](OP(C)(C)=O)[C@H](OC)C2)CC(=O)[C@H](C)/C=C(\C)[C@@H](O)[C@@H](OC)C(=O)[C@H](C)C[C@H](C)/C=C/C=C/C=C/1C [RIDAFOROLIMUS],> 30 µM (inactive),> 30 µM (inactive),> 30 µM (inactive),> 30 µM (inactive),> 30 µM (inactive),> 30 µM (inactive),> 30 µM (inactive),> 30 µM (inactive),> 30 µM (inactive),> 30 µM (inactive)
N#CC1(c2ccc(NC(=O)c3cccnc3NCc3ccncc3)cc2)CCCC1 [RIVOCERANIB],> 30 µM (inactive),> 30 µM (inactive),> 30 µM (inactive),> 30 µM (inactive),> 30 µM (inactive),> 30 µM (inactive),> 30 µM (inactive),> 30 µM (inactive),0.111 µM (active),> 30 µM (inactive)
O=c1[nH]ccc2cc(OC3CCNCC3)ccc12 [SAR-407899 FREE BASE],> 30 µM (inactive),> 30 µM (inactive),> 30 µM (inactive),> 30 µM (inactive),> 30 µM (inactive),> 30 µM (inactive),> 30 µM (inactive),> 30 µM (inactive),> 30 µM (inactive),> 30 µM (inactive)
CN1CCN(CCOc2cc(OC3CCOCC3)c3c(Nc4c(Cl)ccc5c4OCO5)ncnc3c2)CC1 [SARACATINIB],> 30 µM (inactive),> 30 µM (inactive),> 30 µM (inactive),> 30 µM (inactive),> 30 µM (inactive),> 30 µM (inactive),> 30 µM (inactive),> 30 µM (inactive),0.178 µM,> 30 µM (inactive)
Cn1cc(-c2cnn3c(N)c(Br)c([C@@H]4CCCNC4)nc23)cn1 [SCH-900776],> 30 µM (inactive),> 30 µM (inactive),> 30 µM (inactive),> 30 µM (inactive),> 30 µM (inactive),2.36 µM (active),> 30 µM (inactive),> 30 µM (inactive),2.55 µM,> 30 µM (inactive)
CO[C@H]1C[C@@H]2CC[C@@H](C)[C@@](O)(O2)C(=O)C(=O)N2CCCC[C@H]2C(=O)O[C@H]([C@H](C)C[C@@H]2CC[C@@H](O)[C@H](OC)C2)CC(=O)[C@H](C)/C=C(\C)[C@@H](O)[C@@H](OC)C(=O)[C@H](C)C[C@H](C)/C=C/C=C/C=C/1C [SIROLIMUS],> 30 µM (inactive),> 30 µM (inactive),> 30 µM (inactive),> 30 µM (inactive),> 30 µM (inactive),> 30 µM (inactive),> 30 µM (inactive),> 30 µM (inactive),> 30 µM (inactive),> 30 µM (inactive)
CO[C@H]1C[C@@H]2CC[C@@H](C)[C@@](O)(O2)C(=O)C(=O)N2CCCC[C@H]2C(=O)O[C@H]([C@H](C)C[C@@H]2CC[C@@H](OC(=O)C(C)(CO)CO)[C@H](OC)C2)CC(=O)[C@H](C)/C=C(\C)[C@@H](O)[C@@H](OC)C(=O)[C@H](C)C[C@H](C)/C=C/C=C/C=C/1C [TEMSIROLIMUS],> 30 µM (inactive),> 30 µM (inactive),> 30 µM (inactive),> 30 µM (inactive),> 30 µM (inactive),> 30 µM (inactive),> 30 µM (inactive),> 30 µM (inactive),> 30 µM (inactive),> 30 µM (inactive)
COc1cc2c(Nc3ccc(Cl)c(Cl)c3F)ncnc2cc1OC[C@@H]1C[C@@H]2CN(C)C[C@@H]2C1 [TESEVATINIB],> 30 µM (inactive),> 30 µM (inactive),> 30 µM (inactive),> 30 µM (inactive),> 30 µM (inactive),> 30 µM (inactive),> 30 µM (inactive),> 30 µM (inactive),0.064 µM (active),> 30 µM (inactive)
O=C(Cc1ccc(-c2ccc(OCCN3CCOCC3)cc2)cn1)NCc1ccccc1 [TIRBANIBULIN],> 30 µM (inactive),> 30 µM (inactive),> 30 µM (inactive),> 30 µM (inactive),> 30 µM (inactive),> 30 µM (inactive),> 30 µM (inactive),> 30 µM (inactive),> 30 µM (inactive),> 30 µM (inactive)
O=C1NC(=O)[C@@H](c2cn3c4c(cccc24)CCC3)[C@@H]1c1c[nH]c2ccccc12 [TIVANTINIB],> 30 µM (inactive),> 30 µM (inactive),> 30 µM (inactive),> 30 µM (inactive),> 30 µM (inactive),> 30 µM (inactive),> 30 µM (inactive),> 30 µM (inactive),> 30 µM (inactive),> 30 µM (inactive)
C[C@@H](NC(=O)c1ncnc(N)c1Cl)c1ncc(C(=O)Nc2cc(C(F)(F)F)c(Cl)cn2)s1 [TOVORAFENIB],> 30 µM (inactive),> 30 µM (inactive),> 30 µM (inactive),> 30 µM (inactive),> 30 µM (inactive),> 30 µM (inactive),> 30 µM (inactive),> 30 µM (inactive),> 30 µM (inactive),> 30 µM (inactive)
Cc1cc(Nc2ncnc3ccc(NC4=NC(C)(C)CO4)cc23)ccc1Oc1ccn2ncnc2c1 [TUCATINIB],> 30 µM (inactive),> 30 µM (inactive),> 30 µM (inactive),> 30 µM (inactive),> 30 µM (inactive),2.46 µM (active),> 30 µM (inactive),> 30 µM (inactive),> 30 µM (inactive),> 30 µM (inactive)

# — ChEMBL document CHEMBL3991601, “The target landscape of clinical kinase drugs” (Science, 2017)
